Laboratory results published in paper PMC6677754, “In silico design and optimization of selective membranolytic anticancer peptides” (Scientific Reports, 2019).
Peptide text beside a SMILES is read from it.

System: single MCF7 cells
Experiment: Microfluidics chip single-cell experiment
Type: cell-based, human
Settings: single MCF7 cell in microfluidic chip, peptide 50 µM
Procedure: The AmphiArc2 peptide, the shortest peptide of the low micromolar active peptides, has a high hydrophobic moment (µH = 0.87) and a 180° arc of hydrophobic residues in an idealized helical structure (Fig. 1a). As determined by circular dichroism (CD) spectroscopy, the AmphiArc2 peptide is unstructured in pure water but adopts an alpha-helical structure in a hydrophobic environment (in 50% v/v water:2,2-trifluoroethanol, TFE) (Fig. 1b). […] To further investigate its membranolytic action, we observed the activity of AmphiArc2 on single MCF7 cells entrapped in a microfluidic chip.
The resultant sigmoidal curves were analyzed with the drc22 R package using a log-logistic model with 3 fixed parameters to obtain the HC50 values.
Microfluidics chip experiments
Single cell ACP action was observed on MCF7 cells entrapped in a microfluidic chip following the previously described methodology23. For visualization, cells were stained with calcein-AM at a 1 µM concentration. The calcein-AM penetrates into the cytosol of the cells and it is converted there by intracellular esterases to a fluorescent form that remains encapsulated in the cytosol. […]
in a microfuidic chip chamber after exposure to the AmphiArc2 peptide at a concentration of 50 µM. […] The loss of the cytosolic fluorescence corresponds to a permeabilization of the cell membrane. […]

**Q.** `CC[C@H](C)[C@H](NC(=O)[C@H](CCCNC(=N)N)NC(=O)[C@H](Cc1c[nH]c2ccccc12)NC(=O)[C@@H](NC(=O)[C@H](CCCCN)NC(=O)[C@H](CCCCN)NC(=O)[C@@H](NC(=O)[C@@H](NC(=O)[C@@H](NC(=O)[C@H](CCCCN)NC(=O)[C@H](Cc1ccccc1)NC(=O)[C@H](CCCCN)NC(=O)[C@H](CCCCN)NC(=O)[C@H](Cc1ccccc1)NC(=O)[C@@H](NC(=O)[C@@H](N)CCCCN)[C@@H](C)CC)[C@@H](C)O)[C@@H](C)CC)[C@@H](C)CC)C(C)C)C(=O)N[C@@H](Cc1ccccc1)C(=O)NCC(=O)N[C@@H](CCCNC(=N)N)C(=O)N[C@@H](Cc1ccccc1)C(N)=O` [AmphiArc2] (H-KIFKKFKTIIKKVWRIFGRF-NH2) was tested. Which “morphological changes in the cell membrane and leakage of the cytosolic components, time after initial contact with the peptide” value (calcein-AM and anti-EpCAM stained, as early as) did it give?
**A.** The value was 30 seconds.

**Q.** What about the “time after which the encapsulated dye had leaked out, membrane deformations and blebbing” value (calcein-AM stained) of the same molecule?
**A.** Its value is 95 s.
